From patent US10730878B2, “Fused quinoline compounds as PI3K/mTOR inhibitors” (ADVENCHEN PHARMACEUTICALS, LLC, priority 2015, dated 2020)

Target: T1, mTor (Homo sapiens, UniProt P42345)
T1 construct: purchased Millipore/Merck KGA of Europe (panel screening service)
Assay: mTor kinase inhibition, % activity at 0.03 μM (kinases panel screening)
Assay type: biochemical
Settings: 0.03 μM compound
Excerpt: In vitro kinase inhibition activities included Pi3k and mTor activities can be tested with Millipore/Merck KGA of Europe in their kinases panel screening. Animal antitumor activity testing can be conducted by various cancer xenograft models for a compound of formula I. […]

First: Cc1nnc2n(-c3ccc(C(C)(C)C)cc3)c3c4cc(-c5ccc(N)nc5)ccc4ncc3n12 [5-pyridin-2-amine; CH3; CH3, CH3; CH3, 5-[16-(4-tert-butylphenyl)-12-methyl-8,11,13,14,16-pentaazatetracyclo[8.6.0.0^2,^7.0^11,^1^5]-hexadeca-1(10), 2,4,6,8,12,14-heptaen-4-yl]pyridin-2-amine]
Second: 5-[16-(4-tert-butylphenyl)-12-ethyl-8,11,13,14,16-pentaazatetracyclo[8.6.0.0^2,^7.0^11,^1^5]hexadeca-1(10),2,4,6,8,12,14-heptaen-4-yl]-N-[2-(pyrrolidin-1-yl)ethyl]pyridin-2-amine
The “mTor % activity @0.03 μM” value of the first is lower: 34% for the first, 84% for the second.

Compared with “2-amino-N-(5-{16-[4-(1-cyano-1-methylethyl)phenyl]-8,11,13,14,16-pentaazatetra-cyclo[8.6.0.0^2,^7.0^11,^1^5]hexadeca-1(10), 2,4,6,8,12,14-heptaen-4-yl)}pyridin-2-yl)acetamide”, “N-(5-{16-[4-(1-cyano-1-methylethyl)phenyl]-8,11,13,14,16-pentaazatetracyclo[8.6.0.0^2,^7.0^11,^1^5]-hexadeca-1(10),2,4,6,8,12,14-heptaen-4-yl)}pyridin-2-yl)-2-(pyrrolidin-1-yl)acetamide” is lower in “mTor % activity @0.03 μM” value: 8% for the first, −2% for the second.

Going from “N-(5-{16-[4-(1-cyano-1-methylethyl)phenyl]-8,11,13,14,16-pentaazatetracyclo[8.6.0.0^2,^7.0^11,^1^5]-hexadeca-1(10), 2,4,6,8,12,14-heptaen-4-yl)}pyridin-2-yl)-2-(4-oxopiperidin-1-yl)acetamide” to `CCc1nnc2n(-c3ccc(C(C)(C)C#N)cc3)c3c4cc(-c5cnc6[nH]ccc6c5)ccc4ncc3n12` [2-[4-(12-ethyl-4-{(1H-pyrrolo[2,3-b]pyridin-5-yl}-8,11,13,14,16-pentaazatetracyclo-[8.6.0.0^2,^7.0^11,^1^5]hexadec-1(10),2,4,6,8,12,14-heptaen-16-yl)phenyl]-2-methylpropanenitrile], the “mTor % activity @0.03 μM” value falls from 54% to 29%.

First: N-{5-[16-(4-tert-butylphenyl)-12-ethyl-8,11,13,14,16-pentaazatetracyclo[8.6.0.0^2,^7.0^11,^1^5]-hexadeca-(10),2,4,6,8,12,14-heptaen-4-yl]pyridin-2-yl}-2-(morpholin-4-yl)acetamide
Second: N-(5-{16-[4-(1-cyano-1-methylethyl)phenyl]-8,11,13,14,16-pentaazatetracyclo[8.6.0.0^2,^7.0^11,^1^5]-hexadeca-1(10), 2,4,6,8,12,14-heptaen-4-yl)}pyridin-2-yl)-2-(morpholin-4-yl)acetamide
The “mTor % activity @0.03 μM” value of the first is higher: 92% for the first, 72% for the second.

Going from “5-[16-(4-tert-butylphenyl)-12-ethyl-8,11,13,14,16-pentaazatetracyclo[8.6.0.0^2,^7.0^11,^1^5]hexadeca-1(10),2,4,6,8,12,14-heptaen-4-yl]-N-methylpyridin-2-amine” to `CC(C)(C)c1ccc(-n2c3c4cc(-c5cccnc5)ccc4ncc3n3cnnc23)cc1` [3-pyridine; H; CH3, CH3; CH3, 16-(4-tert-butylphenyl)-4-(pyridin-3-yl)-8,11,13,14,16-pentaazatetracyclo[8.6.0.0^2,^7.0^11,^1^5]-hexadeca-1(10), 2,4,6,8,12,14-heptaene], the “mTor % activity @0.03 μM” value falls from 51% to −4%.

Going from “N-{5-[16-(4-tert-butylphenyl)-12-ethyl-8,11,13,14,16-pentaazatetracyclo[8.6.0.0^2,^7.0^11,^1^5]-hexadeca-1(10), 2,4,6,8,12,14-heptaen-4-yl]pyridin-2-yl}-2-(pyrrolidin-1-yl)acetamide” to “N-{5-[16-(4-tert-butylphenyl)-12-ethyl-8,11,13,14,16-pentaazatetracyclo[8.6.0.0^2,^7.0^11,^1^5]-hexadeca-1(10), 2,4,6,8,12,14-heptaen-4-yl]pyridin-2-yl}-2-(methylamino)acetamide”, the “mTor % activity @0.03 μM” value falls from 91% to 40%.

Compared with `COc1ccc(-c2ccc3ncc4c(c3c2)n(-c2ccc(C(C)(C)C)cc2)c2nnc(C)n42)cn1` [2-methoxy-5-pyridine; CH3; CH3, CH3; CH3, 16-(4-tert-butylphenyl)-4-(6-methoxypyridin-3-yl)-12-methyl-8,11,13,14,16-pentaazatetra-cyclo[8.6.0.0^2,^7.0^11,^1^5]hexadeca-1(10), 2,4,6,8,12,14-heptaene], `Cc1nnc2n(-c3ccc(C(C)(C)C#N)cc3)c3c4cc(-c5cnc6[nH]ccc6c5)ccc4ncc3n12` [2-methyl-2-[4-(12-methyl-4-{1H-pyrrolo[2,3-b]pyridin-5-yl}-8,11,13,14,16-pentaazatetra-cyclo[8.6.0.0^2,^7.0^11,^1^5]hexadeca-1(10),2,4,6,8,12,14-heptaen-16-yl)phenyl]propanenitrile] is lower in “mTor % activity @0.03 μM” value: 97% for the first, 15% for the second.

Compared with “5-[16-(4-tert-butylphenyl)-12-ethyl-8,11,13,14,16-pentaazatetracyclo[8.6.0.0^2,^7.0^11,^1^5]hexadeca-1(10),2,4,6,8,12,14-heptaen-4-yl]-N-[2-(morpholin-4-yl)ethyl]pyridin-2-amine”, `CCc1nnc2n(-c3ccc(C(C)(C)C#N)cc3)c3c4cc(-c5ccc(NC(C)=O)nc5)ccc4ncc3n12` [N-(5-{(16-[4-(1-cyano-1-methylethyl)phenyl]-12-ethyl-8,11,13,14,16-pentaazatetracyclo-[8.6.0.0^2,^7.0^11,^1^5]hexadeca-1(10), 2,4,6,8,12,14-heptaen-4-yl)}pyridin-2-yl)acetamide] is lower in “mTor % activity @0.03 μM” value: 102% for the first, 72% for the second.

Compared with `CC(=O)Nc1ccc(-c2ccc3ncc4c(c3c2)n(-c2ccc(C(C)(C)C#N)cc2)c2nncn42)cn1` [N-(5-{16-[4-(1-cyano-1-methylethyl)phenyl]-8,11,13,14,16-pentaazatetracyclo-[8.6.0.0^2,^7.0^11,^1^5]hexadeca-1(10),2,4,6,8,12,14-heptaen-4-yl}pyridin-2-yl)acetamide], `CC(C)(C)c1ccc(-n2c3c4cc(-c5cnc6[nH]ccc6c5)ccc4ncc3n3cnnc23)cc1` [16-(4-tert-butylphenyl)-4-{1H-pyrrolo[2,3-b]pyridin-5-yl}-8,11,13,14,16-pentaazatetracyclo-[8.6.0.0^2,^7.0^11,^1^5]hexadeca-1(10), 2,4,6,8,12,14-heptaene] is lower in “mTor % activity @0.03 μM” value: −10% for the first, −15% for the second.

First: Cc1nnc2n(-c3ccc(C(C)(C)C#N)cc3)c3c4cc(-c5cncnc5)ccc4ncc3n12 [5-pyrimidine; CH3; CH3, CH3; CN, 2-methyl-2-{4-[12-methyl-4-(pyrimidin-5-yl)-8,11,13,14,16-pentaazatetracyclo-[8.6.0.0^2,^7.0^11,^1^5]hexadeca-1(10),2,4,6,8,12,14-heptaen-16-yl]phenyl}propanenitrile]
Second: CC(=O)Nc1ccc(-c2ccc3ncc4c(c3c2)n(-c2ccc(C(C)(C)C)cc2)c2nncn42)cn1 [N-{5-[16-(4-tert-butylphenyl)-8,11,13,14,16-pentaazatetracyclo[8.6.0.0^2,^7.0^11,^1^5]hexadeca-1(10),2,4,6,8,12,14-heptaen-4-yl]pyridin-2-yl}acetamide]
The “mTor % activity @0.03 μM” value of the first is higher: 90% for the first, −6% for the second.

Compared with `C#CC(C)(C)c1ccc(-n2c3c4cc(-c5ccc(OC)nc5)ccc4ncc3n3c(CC)nnc23)cc1` [12-ethyl-4-(6-methoxypyridin-3-yl)-16-[4-(2-methylbut-3-yn-2-yl)phenyl]-8,11,13,14,16-pentaazatetracyclo[8.6.0.0^2,^7.0^11,^1^5]hexadeca-1(10),2,4,6,8,12,14-heptaene], “N-(5-{16-[4-(1-cyano-1-methylethyl)phenyl]-8,11,13,14,16-pentaazatetracyclo[8.6.0.0^2,^7.0^11,^1^5]-hexadeca-1(10), 2,4,6,8,12,14-heptaen-4-yl)}pyridin-2-yl)-2-(dimethylamino)acetamide” is lower in “mTor % activity @0.03 μM” value: 69% for the first, 0% for the second.

First: CC(C)(C#N)c1ccc(-n2c3c4cc(-c5cncnc5)ccc4ncc3n3cnnc23)cc1 [5-pyrimidine; H; CH3, CH3; CN, 2-methyl-2-{4-[4-(pyrimidin-5-yl)-8,11,13,14,16-pentaazatetracyclo[8.6.0.0^2,^7.0^11,^1^5]hexadeca-1(10),2,4,6,8,12,14-heptaen-16-yl]phenyl}propanenitrile]
Second: N-(5-{16-[4-(1-cyano-1-methylethyl)phenyl]-8,11,13,14,16-pentaazatetracyclo[8.6.0.0^2,^7.0^11,^1^5]-hexadeca-1(10), 2,4,6,8,12,14-heptaen-4-yl)}pyridin-2-yl)-2-(thian-4-ylamino)acetamide
The “mTor % activity @0.03 μM” value of the first is lower: 64% for the first, 103% for the second.

Going from `CC(C)(C#N)c1ccc(-n2c3c4cc(-c5ccnc6[nH]ccc56)ccc4ncc3n3cnnc23)cc1` [2-methyl-2-[4-(4-{1H-pyrrolo[2,3-b]pyridin-4-yl}-8,11,13,14,16-pentaazatetracyclo-[8.6.0.0^2,^7.0^11,^1^5]hexadeca-1(10),2,4,6,8,12,14-heptaen-16-yl)phenyl]propanenitrile] to “N-(5-{16-[4-(1-cyano-1-methylethyl)phenyl]-8,11,13,14,16-pentaazatetracyclo[8.6.0.0^2,^7.0^11,^1^5]-hexadeca-1(10), 2,4,6,8,12,14-heptaen-4-yl)}pyridin-2-yl)-2-(4-methylpiperazin-1-yl)acetamide”, the “mTor % activity @0.03 μM” value falls from 70% to 8%.

First: Cc1nnc2n(-c3ccc(C(C)(C)C)cc3)c3c4cc(-c5cccnc5)ccc4ncc3n12 [3-pyridine; CH3; CH3, CH3; CH3, 16-(4-tert-butylphenyl)-12-methyl-4-(pyridin-3-yl)-8,11,13,14,16-pentaazatetracyclo-[8.6.0.0^2,^7.0^11,^1^5]hexadec-1(10),2,4,6,8,12,14-heptaene]
Second: COc1ccc(-c2ccc3ncc4c(c3c2)n(-c2ccc(C(C)(C)C)cc2)c2nncn42)cn1 [2-methoxy-5-pyridine; H; CH3, CH3; CH3, 16-(4-tert-butylphenyl)-4-(6-methoxypyridin-3-yl)-8,11,13,14,16-pentaazatetracyclo-[8.6.0.0^2,^7.0^11,^1^5]hexadec-1(10),2,4,6,8,12,14-heptaene]
The “mTor % activity @0.03 μM” value of the first is higher: 88% for the first, 15% for the second.
